From US4120955A, “Method for production of kanamycin C and its derivatives” (Zaidan Hojin Biseibutsu Kagaku Kenkyu Kai, priority 1976, dated 1978)
In brackets after ≈: the same amount, converted by molar mass. Entries after “also recorded” stand apart in the source; their conditions may differ. Like-named read-outs stand apart in the source and are kept apart here.

What was measured:
Escherichia coli K-12 R5 = experiment: Minimum inhibitory concentration, serial dilution method; type: cell-based; details: K12R5, 18 h, read-out: Minimum Inhibitory Concentration
Experimental: (§1) The minimum inhibitory concentrations (mcg/ml) of kanamycin C, 3'-deoxykanamycin C and 3',4'-dideoxykanamycin C against various microorganisms were determened according to serial dilution method using nutrient agar medium at 37° C., the estimation being effected after 18 hours incubation.

[1] = test system: Staphylococcus aureus FDA 209P; experiment: as above; type: cell-based; details: FDA209P, read-out: Minimum Inhibitory Concentration
Experimental: as §1

[2] = test system: Escherichia coli K-12 ML 1629; experiment: as above; type: cell-based
Experimental: as §1

[3] = test system: Pseudomonas aeruginosa GN 315; experiment: as above; type: cell-based
Experimental: as §1

[4] = test system: Pseudomonas aeruginosa H 11; experiment: as above; type: cell-based
Experimental: as §1

[5] = test system: Pseudomonas aeruginosa TI-13; experiment: as above; type: cell-based
Experimental: as §1

Escherichia coli W 677 = experiment: as above; type: cell-based
Experimental: as §1

[6] = test system: Escherichia coli LA 290 R55; experiment: as above; type: cell-based; details: LA290R55, 18 h, read-out: Minimum Inhibitory Concentration
Experimental: as §1

[7] = test system: Klebsiella pneumoniae 22 No. 3038; experiment: as above; type: cell-based
Experimental: as §1

[8] = test system: Mycobacterium smegmatis ATCC 607; experiment: as above; type: cell-based; details: Mycolicibacterium smegmatis, read-out: Minimum Inhibitory Concentration
Experimental: as §1

[9] = test system: Pseudomonas aeruginosa A3; experiment: as above; type: cell-based; details: nutrient agar, 37° C., 18 hours, P. aeruginosa A3
Experimental: as §1

Escherichia coli K-12 = experiment: as above; type: cell-based
Experimental: as §1

[10] = test system: Escherichia coli K-12 ML 1630; experiment: as above; type: cell-based; details: K12ML1630, nutrient agar, 37° C., 18 hours, E. coli K-12 ML 1630
Experimental: as §1

[11] = test system: Klebsiella pneumoniae PCI 602; experiment: as above; type: cell-based
Experimental: as §1

Escherichia coli NIHJ = experiment: as above; type: cell-based; details: read-out: Minimum Inhibitory Concentration
Experimental: as §1

99 = experiment: as above; type: cell-based; details: 18 h, read-out: Minimum Inhibitory Concentration
Experimental: as §1

[12] = test system: Escherichia coli LA 290 R64; experiment: as above; type: cell-based; details: LA290R64, 18 h, read-out: Minimum Inhibitory Concentration
Experimental: as §1

[13] = test system: Pseudomonas aeruginosa No. 12; experiment: as above; type: cell-based
Experimental: as §1

[14] = test system: Escherichia coli K-12 ML 1410; experiment: as above; type: cell-based; details: K12ML1410, nutrient agar, 37° C., 18 hours, E. coli K-12 ML 1410
Experimental: as §1

[15] = test system: Escherichia coli K-12 ML 1410 R81; experiment: as above; type: cell-based; details: 18 h, read-out: Minimum Inhibitory Concentration
Experimental: as §1

[16] = test system: Escherichia coli LA 290 R56; experiment: as above; type: cell-based; details: LA290R56, 18 h, read-out: Minimum Inhibitory Concentration
Experimental: as §1

[17] = test system: Escherichia coli JR 66/W677; experiment: as above; type: cell-based
Experimental: as §1

in vivo = details: mouse, iv
[18] = test system: aminoglycoside 6'-acetyltransferases; experiment: Inactivation by aminoglycoside 6'-acetyltransferases; type: biochemical
[19] = mouse, in vivo
[20] = test system: aminoglycoside 3'-phosphotransferases; experiment: Inactivation by aminoglycoside 3'-phosphotransferases; type: biochemical
bacterial strains = experiment: Antibacterial activity in general (summary of Table 1); type: cell-based; details: for antibacterial activity compared with 3'-deoxykanamycin B and 3',4'-dideoxykanamycin B: against some bacteria strains
Experimental: as §1

[21] = test system: aminoglycoside 6'-acetyltransferases; details: known kanamycins; cited from earlier work
[22] = test system: resistant strains which produce 6'-acetyltransferases, for example Pseudomonas aeruginosa GN315; details: known deoxykanamycin B derivatives; cited from earlier work
[23] = test system: resistant bacteria which produce 3'-phosphotransferases; details: known deoxykanamycin B derivatives; cited from earlier work
[24] = test system: resistant strains which produce 6'-acetyltransferases, for example Pseudomonas aeruginosa GN315; experiment: Activity against resistant strains producing 6'-acetyltransferases; type: cell-based; details: compared with kanamycin B derivatives
[25] = K12ML1629, 18 h, read-out: Minimum Inhibitory Concentration
[26] = GN315, 18 h, read-out: Minimum Inhibitory Concentration
[27] = H11, 18 h, read-out: Minimum Inhibitory Concentration
[28] = TI13, 18 h, read-out: Minimum Inhibitory Concentration
[29] = W677, 18 h, read-out: Minimum Inhibitory Concentration
[30] = 22NO.3038, 18 h, read-out: Minimum Inhibitory Concentration
[31] = ATCC607, nutrient agar, 37° C., 18 hours, M. smegmatis ATCC 607
[32] = K12, 18 h, read-out: Minimum Inhibitory Concentration
[33] = PCI602, 18 h, read-out: Minimum Inhibitory Concentration
[34] = NO.12, 18 h, read-out: Minimum Inhibitory Concentration
[35] = JR66/W677, 18 h, read-out: Minimum Inhibitory Concentration
[36] = nutrient agar, 37° C., 18 hours, S. aureus FDA 209P
[37] = GN315, nutrient agar, 37° C., 18 hours, P. aeruginosa GN 315, read-out: Minimum Inhibitory Concentration
[38] = W677, nutrient agar, 37° C., 18 hours, E. coli W 677, read-out: Minimum Inhibitory Concentration
[39] = nutrient agar, 37° C., 18 hours, K. pneumoniae 22 No. 3038, read-out: Minimum Inhibitory Concentration
[40] = K12, nutrient agar, 37° C., 18 hours, E. coli K-12, read-out: Minimum Inhibitory Concentration
[41] = PCI602, nutrient agar, 37° C., 18 hours, K. pneumoniae PCI 602, read-out: Minimum Inhibitory Concentration
[42] = JR66/W677, nutrient agar, 37° C., 18 hours, E. coli JR 66/W677, read-out: Minimum Inhibitory Concentration

Structure (SMILES)	MIC (Escherichia coli K-12 R5) [µg/mL]	MIC ([1]; 18 h) [µg/mL]	MIC [2, 25] [µg/mL]	MIC [3, 26] [µg/mL]	MIC [5, 28] [µg/mL]	MIC (Escherichia coli W 677; [29]) [µg/mL]	MIC [6] [µg/mL]	MIC [7, 30] [µg/mL]	MIC [8, 31] [µg/mL]	MIC [9] [µg/mL]	MIC (Escherichia coli K-12; [32]) [µg/mL]	MIC [10] [µg/mL]	MIC (Escherichia coli NIHJ; 18 h) [µg/mL]	MIC 99 [µg/mL]	MIC [12] [µg/mL]	MIC [13, 34] [µg/mL]	MIC [14] [µg/mL]	MIC [15] [µg/mL]	MIC [16] [µg/mL]	inactivation (acetylation of the 6'-amino group) by 6'-acetyltransferases [21]	further results
NC1CCC(CO)OC1OC1C(N)CC(N)C(OC2OC(CO)C(O)C(N)C2O)C1O (centres unmarked) [3',4'-Dideoxykanamycin C, 3',4'-dideoxykanamycin C]	12.5 (≈ 27.6 µM)	6.25 (≈ 13.8 µM)	12.5 (≈ 27.6 µM)	100 (≈ 221 µM)	100 (≈ 221 µM)	6.25 (≈ 13.8 µM)	> 100	> 100	50 (≈ 110 µM)	100 (≈ 221 µM)	25 (≈ 55.2 µM)	12.5 (≈ 27.6 µM)	12.5 (≈ 27.6 µM)	> 100	100 (≈ 221 µM)	100 (≈ 221 µM)	12.5 (≈ 27.6 µM)	50 (≈ 110 µM)	100 (≈ 221 µM)		MIC [4, 27]: 100 µg/mL (≈ 221 µM); MIC [11, 33]: 25 µg/mL (≈ 55.2 µM); MIC [17, 35]: > 100 µg/mL; LD50 (in vivo): > 300 mg/kg; inactivation by 6'-acetyltransferases [18]: not inactivated; acute toxicity compared with deoxy derivatives of kanamycin B [19]: remarkably lower toxicity; inactivation by 3'-phosphotransferases [20]: not inactivated; growth inhibition of bacterial strains (bacterial strains): inhibits the growth of many kinds of bacterial strains; antibacterial activity compared with 3'-deoxykanamycin B and 3',4'-dideoxykanamycin B (bacterial strains): inferior
NC[C@H]1O[C@H](O[C@H]2[C@H](O)[C@@H](O[C@H]3O[C@H](CO)[C@@H](O)[C@H](N)[C@H]3O)[C@H](N)C[C@@H]2N)[C@H](N)[C@@H](O)[C@@H]1O [kanamycin B]																				acetylate the 6'-amino group	
NCC1CCC(N)C(OC2C(N)CC(N)C(OC3OC(CO)C(O)C(N)C3O)C2O)O1 (centres unmarked) [DKB, 3',4'-dideoxykanamycin B, reference compound]					1.56 (≈ 3.45 µM)		50 (≈ 111 µM)		0.39 (≈ 0.864 µM)	1.56 (≈ 3.45 µM)		0.78 (≈ 1.73 µM)		3.13 (≈ 6.93 µM)	6.25 (≈ 13.8 µM)		1.56 (≈ 3.45 µM)	1.56 (≈ 3.45 µM)	12.5 (≈ 27.7 µM)	can be inactivated; also recorded: acetylate the 6'-amino group	MIC [1, 36]: < 0.2 µg/mL; MIC ([2]; K12ML1629, nutrient agar, 37° C., 18 hours, E. coli K-12 ML 1629, read-out: Minimum Inhibitory Concentration): 0.78 µg/mL (≈ 1.73 µM); MIC [3, 37]: > 100 µg/mL; MIC (Escherichia coli W 677; [38]): 0.2 µg/mL (≈ 0.443 µM); MIC [7, 39]: 100 µg/mL (≈ 221 µM); MIC (Escherichia coli K-12; [40]): 0.78 µg/mL (≈ 1.73 µM); MIC [11, 41]: 0.39 µg/mL (≈ 0.864 µM); MIC (Escherichia coli NIHJ; nutrient agar, 37° C., 18 hours, E. coli NIHJ): 0.39 µg/mL (≈ 0.864 µM); MIC ([13]; nutrient agar, 37° C., 18 hours, P. aeruginosa No. 12, read-out: Minimum Inhibitory Concentration): 0.78 µg/mL (≈ 1.73 µM); MIC [17, 42]: 50 µg/mL (≈ 111 µM); growth inhibition of resistant bacteria producing 6'-acetyltransferases [22]: not able to inhibit the growth
NCC1OC(OC2C(N)CC(N)C(OC3OC(CO)C(O)C(N)C3O)C2O)C(O)C(O)C1O (centres unmarked) [kanamycin A]																				acetylate the 6'-amino group	
NCC1OC(OC2C(N)CC(N)C(OC3OC(CO)C(O)C(N)C3O)C2O)C(N)CC1O (centres unmarked) [DKMB, 3'-deoxykanamycin B, reference compound]			1.56 (≈ 3.34 µM)	100 (≈ 214 µM)	0.78 (≈ 1.67 µM)		25 (≈ 53.5 µM)		0.39 (≈ 0.834 µM)	1.56 (≈ 3.34 µM)		1.56 (≈ 3.34 µM)	0.78 (≈ 1.67 µM)	1.56 (≈ 3.34 µM)	3.13 (≈ 6.69 µM)	0.78 (≈ 1.67 µM)	1.56 (≈ 3.34 µM)	1.56 (≈ 3.34 µM)	3.13 (≈ 6.69 µM)	can be inactivated; also recorded: acetylate the 6'-amino group	MIC [1, 36]: < 0.2 µg/mL; MIC (Escherichia coli W 677; [38]): 0.39 µg/mL (≈ 0.834 µM); MIC [7, 39]: 50 µg/mL (≈ 107 µM); MIC (Escherichia coli K-12; [40]): 0.39 µg/mL (≈ 0.834 µM); MIC [11, 41]: 0.39 µg/mL (≈ 0.834 µM); MIC [17, 42]: 50 µg/mL (≈ 107 µM); LD50 (in vivo): 159 mg/kg; growth inhibition of resistant bacteria producing 6'-acetyltransferases [22]: not able to inhibit the growth; activity against resistant bacteria producing aminoglycoside 3'-phosphotransferases [23]: active
NC1CC(N)C(OC2OC(CO)C(O)C(N)C2O)C(O)C1OC1OC(CO)C(O)C(O)C1N (centres unmarked) [Kanamycin C, kanamycin C]	3.13 (≈ 6.46 µM)	1.56 (≈ 3.22 µM)	> 100	> 100	> 100	3.13 (≈ 6.46 µM)	> 100	> 100		> 100	3.13 (≈ 6.46 µM)	> 100	3.13 (≈ 6.46 µM)	> 100	25 (≈ 51.6 µM)	100 (≈ 206 µM)	6.25 (≈ 12.9 µM)	> 100	25 (≈ 51.6 µM)		MIC [4, 27]: > 100 µg/mL; MIC ([8]; ATCC607, 18 h): 12.5 µg/mL (≈ 25.8 µM); MIC [11, 33]: 3.13 µg/mL (≈ 6.46 µM); MIC [17, 35]: > 100 µg/mL; inactivation by 6'-acetyltransferases [18]: inherently cannot be inactivated
NC1CC(O)C(CO)OC1OC1C(N)CC(N)C(OC2OC(CO)C(O)C(N)C2O)C1O (centres unmarked) [3'-Deoxykanamycin C, 3'-deoxykanamycin C]	12.5 (≈ 26.7 µM)	3.13 (≈ 6.68 µM)	12.5 (≈ 26.7 µM)			6.25 (≈ 13.3 µM)	> 100	> 100		12.5 (≈ 26.7 µM)	12.5 (≈ 26.7 µM)	12.5 (≈ 26.7 µM)	12.5 (≈ 26.7 µM)	100 (≈ 213 µM)	50 (≈ 107 µM)	100 (≈ 213 µM)	12.5 (≈ 26.7 µM)	50 (≈ 107 µM)	100 (≈ 213 µM)		MIC [3, 37]: 50 µg/mL (≈ 107 µM); MIC ([4]; H11, nutrient agar, 37° C., 18 hours, P. aeruginosa H 11, read-out: Minimum Inhibitory Concentration): 50 µg/mL (≈ 107 µM); MIC ([5]; TI13, nutrient agar, 37° C., 18 hours, P. aeruginosa TI-13, read-out: Minimum Inhibitory Concentration): 50 µg/mL (≈ 107 µM); MIC ([8]; ATCC607, 18 h): 25 µg/mL (≈ 53.4 µM); MIC [11, 33]: 6.25 µg/mL (≈ 13.3 µM); MIC [17, 35]: > 100 µg/mL; LD50 (in vivo): > 300 mg/kg; activity against resistant strains which produce 6'-acetyltransferases [24]: more active than kanamycin B derivatives; inactivation by 6'-acetyltransferases [18]: not inactivated; acute toxicity compared with deoxy derivatives of kanamycin B [19]: remarkably lower toxicity; inactivation by 3'-phosphotransferases [20]: not inactivated; growth inhibition of bacterial strains (bacterial strains): inhibits the growth of many kinds of bacterial strains; antibacterial activity compared with 3'-deoxykanamycin B and 3',4'-dideoxykanamycin B (bacterial strains): inferior
